Test results reported in PubChem BioAssay (NCI).
“And” between values parts separate entries of the source, which are not always exact repeats. Equal values may be shown once.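 Protocol summary: plate cells (96-well), add compound at 5 concentrations, incubate 48 h, interpolate endpoints linearly. GI50: concentration for 50% inhibition of growth. At the TGI there is no net growth.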

Legend:
Assay in all cases: DTP human tumour cell line panel, 48 h
[1] = system: BT-549 breast
[2] = system: CAKI-1 renal
[3] = system: HCC-2998 colon
[4] = system: MOLT-4 leukemia
[5] = system: NCI-H226 lung
[6] = system: NCI-H23 lung
[7] = system: NCI/ADR-RES ovarian
[8] = system: OVCAR-5 ovarian
[9] = system: U251 CNS
[10] = system: UACC-62 melanoma

SMILES	TGI [1]	TGI [2]	TGI [3]	TGI [4]	TGI [5]	TGI [6]	TGI [7]	TGI [8]	TGI [9]	TGI [10]	GI50 [1]	GI50 [2]	GI50 [3]	GI50 [4]	GI50 [5]	GI50 [6]	GI50 [7]	GI50 [8]	GI50 [9]	GI50 [10]
CCC(=S)N(C)O	> 100 µM	> 100 µM	> 95.7 µM	46.9 µM	> 100 µM	> 100 µM	> 100 µM	> 100 µM	> 100 µM	78.3 µM	–	–	–	–	–	–	–	–	–	–
O=C(O)[C@@H]1C[C@@H](O)CN1	> 100 µM	> 100 µM	> 100 µM	> 100 µM	> 100 µM	> 100 µM	> 100 µM	> 100 µM	> 100 µM	> 100 µM	–	–	–	–	–	–	–	–	–	–
O=C1C(Nc2ccccn2)=C(I)C(=O)c2ncccc21	3.14 µM	2.12 µM	2.98 µM	4.66 µM	3.08 µM	2.61 µM	4.6 µM	3.25 µM	2.07 µM	2.67 µM	1.54 µM	0.826 µM	1.53 µM	0.702 µM	1.43 µM	0.584 µM	1.25 µM	1.71 µM	0.591 µM	1.28 µM
C[C@]12CC[C@@H]3c4ccc(O)cc4CC[C@H]3[C@@H]1CC[C@@H]2NS(=O)(=O)c1cccc(Br)c1	10.3 µM	11 µM	15.9 µM	12.7 µM	15.6 µM	17 µM	13.6 µM	16.3 µM	11 µM	12.9 µM	3.05 µM	2.99 µM	4.31 µM	2.59 µM	3.19 µM	3.89 µM	3.14 µM	4.09 µM	3.23 µM	3.19 µM
O=C(Nc1ccc(-n2cc(-c3ccncc3)c(-c3ccc(Cl)c(O)c3)n2)cc1)c1cc(Cl)cc(Cl)c1	> 100 µM	> 24.6 µM	> 23.6 µM	> 100 µM	> 100 µM	> 100 µM	> 100 µM	97.5 µM	> 100 µM	> 28.1 µM	2.53 µM	2.03 µM	3.41 µM	5.71 µM	> 100 µM	7.41 µM	6.1 µM	8.42 µM	3.93 µM	2.96 µM
NC(N)=NC(N)=NCCc1ccccc1	> 100 µM	> 100 µM	> 100 µM	> 100 µM	> 100 µM	> 100 µM	> 100 µM	> 100 µM	> 100 µM	> 100 µM	> 100 µM and 32.8 µM	58.5 µM and > 100 µM	> 100 µM	> 100 µM	> 100 µM	50.5 µM and 34.7 µM	> 100 µM	> 100 µM	> 100 µM	> 100 µM
COc1cc2cc(C(=O)O)[nH]c2cc1OCc1ccccc1	> 100 µM	> 100 µM	> 100 µM	> 100 µM	> 100 µM	> 100 µM	> 100 µM	> 100 µM	> 100 µM	> 100 µM	> 100 µM	> 100 µM	> 100 µM	> 100 µM	> 100 µM	> 100 µM	> 100 µM	> 100 µM	> 100 µM	> 100 µM
c1ccc(-c2cc(-c3cc(-c4ccccn4)[nH]n3)n[nH]2)nc1	> 100 µM	> 100 µM	83.6 µM	> 100 µM	> 100 µM	> 100 µM	> 100 µM	> 100 µM	> 100 µM	> 100 µM	–	–	–	–	–	–	–	–	–	–
Nc1cc(C(F)F)c(-c2nc(N3[C@@H]4CC[C@H]3COC4)nc(N3[C@@H]4CC[C@H]3COC4)n2)cn1	2.77 µM	3.21 µM	> 100 µM	> 100 µM	> 21.9 µM	> 100 µM	39.5 µM	43 µM	> 100 µM	2.2 µM	0.179 µM	0.188 µM	0.636 µM	0.796 µM	0.244 µM	0.652 µM	0.603 µM	0.3 µM	0.501 µM	0.212 µM
CN(C)CCCC1(c2ccc(F)cc2)OCc2cc(-c3ccc4cc[nH]c4c3)ccc21 (stereo unspecified)	7.62 µM	3.11 µM	3.48 µM	4.34 µM	29.3 µM	4.11 µM	5.31 µM	4.3 µM	–	3.77 µM	2.35 µM	1.63 µM	1.84 µM	2.04 µM	10.7 µM	1.97 µM	2.21 µM	1.95 µM	–	1.85 µM
Cc1ccc(NC2=C(Cl)C(=O)c3nc(C)ccc3C2=O)cc1	2.82 µM	2.68 µM	3.2 µM	> 100 µM	3.2 µM	–	4.62 µM	3.62 µM	2.75 µM	2.97 µM	1.45 µM	1.36 µM	1.67 µM	2.52 µM	1.41 µM	–	1.73 µM	1.87 µM	1.31 µM	1.57 µM
